Holding throughout (type): cell-based
In assay [1] the test system is human colon carcinoma cells (HCT116). As to the kind of experiment: Cell proliferation, crystal violet method. To be noted: for HCT116 cell growth vs vehicle control: 100 μM, FIG. 3a, 3b, 13a, 13b; for IC50: crystal violet, spectrophotometer, read-out: IC50 anti-proliferative effect, CRC (HCT116). As to the method:
(§1) The compound according to the invention, and in particular the synthetic quercetin derivatives described and illustrated herein were investigated in vitro by using human tumour cells and assessing their impact on the tumour proliferative capacity, with regard to the tumours described above. In particular, the following human tumour cell lines were assessed experimentally: 1) HCT116, colon adenocarcinoma cells; 2) H1299, lung adenocarcinoma cells; 3) A375, melanoma cells, and 4) A431, squamous skin cell carcinoma; 5) 786-0, renal carcinoma cells; 6) PC3, prostate carcinoma cells; 7) BT549, mammary carcinoma cells; 8) CAL27, tongue carcinoma cells (belonging to the head-and-neck carcinomas); 9) HepG2, hepatocellular carcinoma cells; 10) PANC-1, pancreas carcinoma cells; 11) T24, bladder carcinoma cells; 12) OVCAR-3, ovarian carcinoma cells. In addition, a normal human cell line, WS1 (skin fibroblasts) was also treated with the novel synthetic compounds.
(§2) Cell proliferation was quantified by the crystal violet method with a spectrophotometer. In short, after acquiring serial images (0, 24 and 48 hrs) with the EVOS XL Cell Imaging System microscope (Thermo Fisher Scientific), the cells imaged at 48 hrs were fixed with paraformaldehyde (4%) and stained with Crystal Violet (1%). Then, the specific absorbance (λ=590 nm) at 48 hrs was measured with a spectrophotometer (Infinite®200 PRO, Tecan). Data analysis was carried out by using ad-hoc Excel files for graphical representation and statistical processing (t-test). Moreover, the results obtained with Crystal Violet were confirmed by using another cell proliferation assessment method based on the real time cellular analyzer XCELLigence RTCA DP (ACEA Biosciences, Inc.). This tool allows cell growth to be monitored from electrical impedance-derived quantitative values (the so-called Cell Index) measured by tiny electrodes located at the base of the culture wells. Proliferation is monitored for several days (5-7) by setting a Cell Index per minute measure on the instrument. The data are analysed by processing various parameters calculated by the dedicated software, such as the cell duplication time, the slope and the Max Cell Index.
(§3) Cell proliferation was quantitated spectrophotometrically by the crystal violet method.

Assay [2] deals with human hepatocellular carcinoma cells (HepG2). As to the kind of experiment: Cell proliferation, crystal violet method. To be noted: for HepG2 tumour growth vs vehicle control: 80 μM, FIG. 8a, 8b; for IC50: crystal violet, spectrophotometer, read-out: IC50 anti-proliferative effect, HCC - HepG2. As for the experimental part:
as §1, §2, §3

In assay [3] the test system is human mammary carcinoma cells (BT549). As to the kind of experiment: Cell proliferation, crystal violet method. To be noted: for BT549 cell growth vs vehicle control: 80 μM, FIG. 6a, 6b; for IC50: crystal violet, spectrophotometer, read-out: IC50 anti-proliferative effect, BRC - (BT549). As for the experimental part:
as §1, §2, §3

Assay [4] has as its system human melanoma cells (A375). As to the kind of experiment: Cell proliferation, crystal violet method. Conditions: for IC50: crystal violet, spectrophotometer, read-out: IC50 anti-proliferative effect, Melanoma (A375); for growth of melanoma cells (A375) vs vehicle control: 60 μM, FIG. 1a, 1b. As for the experimental part:
as §1, §2, §3

The test system of assay [5] is human tongue carcinoma cells (Cal27). As to the kind of experiment: Cell proliferation, crystal violet method. Conditions: for Cal27 tumour growth vs vehicle control: 80 μM, FIG. 7a, 7b; for IC50: crystal violet, spectrophotometer, read-out: IC50 anti-proliferative effect, HNC - (Cal27). As to the method:
as §1, §2, §3

For assay [6], the system named is human colon (HCT116) tumour line. As to the kind of experiment: Apoptosis, acridine orange/ethidium bromide method. Conditions: 2 hrs; Compound 2 50 μM, 5 40 μM, 4 40 μM, 3 60 μM, 1 60 μM; FIG. 18. The source says:
Tumour cell apoptosis was quantified by the acridine orange/ethidium bromide (AO/EB) method and by using a fluorescence microscope and image-J. In short, after treatment with the test compounds (2 hrs), the tumour cells were placed in contact with an AO/EB solution (in sterile H2O) and photographed with a fluorescence microscope (Leica) by using the ≥20× objective (so as to distinguish the morphology of cell nuclei). In this way, the living cells are labelled with AO and emit fluorescence in the green channel, while the necrotic cells, which have undergone the rupture of the plasma membrane, are permeable to EB and emit fluorescence in the red channel. In contrast, apoptotic cells are permeable to both AO and EB, and as a consequence of the colocalization of the two fluorescences appear yellow-orange when the two individual microscope-acquired fluorescences are superimposed by using the editing program Image J. The objective quantification of the colocalization areas (apoptotic cells) and the non-colocalization areas (living or necrotic cells) was carried out on a number of cells ≥300/condition through the use of Apoptosis Correlator (ImageJ plug-in) and shown as the percentage of living (green), necrotic (red) or apoptotic (yellow-orange) tumour cells. Data analysis was carried out by using GraphPad Prism 6 for graphical representation and statistical processing (2-way ANOVA test).

The test system of assay [7] is human colon carcinoma cells (HCT116). Put plainly: Intracellular ROS levels, DCFH2-DA probe. To be noted: for intracellular ROS levels in HCT116 cells: 2 hrs of treatment, at the respective anti-proliferative IC50s, DCF fluorescence in A.U., FIG. 22 left. As for the experimental part: Intracellular ROS levels were measured in tumour cells by using the probe 2,7-dichlorodihydrofluorescein diacetate (DCFH2-DA) and a fluorescence spectrophotometer. DCFH2-DA diffuses readily through the cell membrane into the cytosolic space of the cell where it is hydrolyzed by intracellular esterases into the non-permeable DCFH2 product. DCFH2 oxidation by intracellular ROS (mainly H2O2, HO·, ROO·, NO· and ONOO) results in the production of intracellular fluorescent DCF, whose concentration is directly proportional to the levels of ROS in the cell. […] All the experiments were repeated at least 3 times. Data analysis was carried out with GraphPad Prism 6 for graphical representation and statistical processing (1-way ANOVA test).

By IC50 is commonly meant the midpoint of a concentration-inhibition curve.

Entries after “also recorded” stand apart in the source; their conditions may differ.

Take “2-(3,4-Dihydroxyphenyl)-3-hexadecyloxy-5,7-dihydroxy-4H-chromen-4-one [Compound 3]”: in assay [1], the “HCT116 cell growth vs vehicle control” value is recorded as “significantly inhibit” and the IC50 stood at 59.8 µM. In addition, in assay [2], the “HepG2 tumour growth vs vehicle control” value is “significantly inhibit; also recorded: superior to that of quercetin” and the 50% inhibitory concentration (IC50) amounted to 50.2 µM. For the same substance, in assay [3], the “BT549 cell growth vs vehicle control” value is recorded as “significantly inhibit” and the IC50 came out at 119 µM. For the same substance, the IC50 in assay [4] came out at 48.1 µM. For the same substance, in assay [5], the “Cal27 tumour growth vs vehicle control” value is given as “significantly inhibit” and the IC50 turned out to be 36.7 µM. In assay [6], the “induction of apoptosis in HCT116” value is on record as “induced apoptosis”. Moreover, the “intracellular ROS levels in HCT116 cells” value in assay [7] is listed as “significantly raise”.
With “2-(3,4-Dihydroxyphenyl)-3-ethoxy-5,7-dihydroxy-4H-chromen-4-one [Compound 1]”, the IC50 came out at 166 µM in assay [1]; 144 µM in assay [2]; 191 µM in assay [3]; 67.1 µM in assay [4]; 15.6 µM in assay [5]. In assay [2], the “HepG2 tumour growth vs vehicle control” value is reported as “significantly inhibit”. The “BT549 cell growth vs vehicle control” value in assay [3] is recorded as “significantly inhibit”. The “Cal27 tumour growth vs vehicle control” value in assay [5] is listed as “significantly inhibit”. Besides, the “induction of apoptosis in HCT116” value in assay [6] is “induced apoptosis”. In addition, the “intracellular ROS levels in HCT116 cells” value in assay [7] is on record as “significantly raise”. Moreover, the “intracellular ROS levels in HCT116 cells after pretreatment with NAC” value in assay [7] (pretreatment with N-Acetyl-L-Cysteine 10 mM, FIG. 22 right) was “blocked”.
Take “2-(3,4-Dihydroxyphenyl)-3-hexyloxy-5,7-dihydroxy-4H-chromen-4-one [Compound 2]”: in assay [1], the “HCT116 cell growth vs vehicle control” value is “significantly inhibit” and the IC50 was determined as 42.8 µM. Besides, in assay [2], the “HepG2 tumour growth vs vehicle control” value is “significantly inhibit” and the IC50 was found to be 265 µM. Further, in assay [3], the “BT549 cell growth vs vehicle control” value is recorded as “significantly inhibit” and the IC50 is 156 µM. Also, in assay [4], the “growth of melanoma cells (A375) vs vehicle control” value (“growth … (A375) vs vehicle control” below) is “significantly inhibit” and the IC50 amounted to 19.3 µM. Further, in assay [5], the “Cal27 tumour growth vs vehicle control” value is on record as “significantly inhibit” and the IC50 came to 63.2 µM. Moreover, in assay [6], the “induction of apoptosis in HCT116” value is “induced apoptosis”. Moreover, the “intracellular ROS levels in HCT116 cells” value in assay [7] was “significantly raise”.
As to “2-(3,4-dihydroxyphenyl)-5,7-dihydroxy-4-oxo-4H-chromen-3-yl acetate [Compound 4]”, in assay [1], the “HCT116 cell growth vs vehicle control” value is listed as “significantly inhibit” and the IC50 was determined as 22.9 µM. In assay [2], the “HepG2 tumour growth vs vehicle control” value is “significantly inhibit; also recorded: superior to that of quercetin” and the IC50 came to 54.4 µM. Besides, in assay [3], the “BT549 cell growth vs vehicle control” value was “significantly inhibit” and the IC50 is 48.6 µM. Moreover, in assay [4], the “growth … (A375) vs vehicle control” value was “significantly inhibit” and the IC50 is 20.1 µM. Moreover, in assay [5], the “Cal27 tumour growth vs vehicle control” value is “significantly inhibit” and the IC50 was determined as 22.9 µM. Also, the “induction of apoptosis in HCT116” value in assay [6] was “induced apoptosis”.
As for “2-(3,4-dihydroxyphenyl)-5,7-dihydroxy-4-oxo-4H-chromen-3-yl palmitate [Compound 5]”, in assay [1], the “HCT116 cell growth vs vehicle control” value is listed as “significantly inhibit” and the IC50 amounted to 28.8 µM. Moreover, in assay [2], the “HepG2 tumour growth vs vehicle control” value is given as “significantly inhibit; also recorded: superior to that of quercetin” and the IC50 worked out at 106 µM. Besides, in assay [3], the “BT549 cell growth vs vehicle control” value is listed as “significantly inhibit” and the IC50 worked out at 46.5 µM. In addition, in assay [4], the “growth … (A375) vs vehicle control” value is recorded as “significantly inhibit” and the IC50 was determined as 16.4 µM. In assay [5], the “Cal27 tumour growth vs vehicle control” value was “significantly inhibit; also recorded: superior to that of quercetin” and the IC50 came out at 19.7 µM. Also, in assay [6], the “induction of apoptosis in HCT116” value is on record as “induced apoptosis”.

The values are drawn from patent publication US12059400B2, “Medical compound” (VERA SALUS RICERCA S.R.L., priority 2017, dated 2024).
